In ChEMBL document CHEMBL3797130, “Development of novel proteasome inhibitors based on phthalazinone scaffold” (Bioorg Med Chem Lett, 2016):
Calls of active or inactive are those of the source. The rule behind the calls is not given here.

Tests used:
[1] = molecular target: T1, Proteasome Macropain subunit MB1 (Homo sapiens) (UniProt P28074); experiment: Inhibition of chymotrypsin-like activity of 20S human proteasome assessed as […] at 25 ug/ml using Promega proteasome-Glo-3 substrate incubated for 15 mins by luminescence assay
T1 sequence (whole entry): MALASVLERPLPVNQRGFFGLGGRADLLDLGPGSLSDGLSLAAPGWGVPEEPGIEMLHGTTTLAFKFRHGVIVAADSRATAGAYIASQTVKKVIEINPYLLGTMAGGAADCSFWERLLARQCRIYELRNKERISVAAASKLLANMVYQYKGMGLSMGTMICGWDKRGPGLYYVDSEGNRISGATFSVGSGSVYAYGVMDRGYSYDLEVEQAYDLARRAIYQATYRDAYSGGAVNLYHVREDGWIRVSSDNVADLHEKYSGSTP

[2] = molecular target: T2, Proteasome Macropain subunit MB1 (Homo sapiens, UniProt P28074); experiment: Inhibition of chymotrypsin-like activity of 20S human proteasome assessed as […] at using Promega proteasome-Glo-3 substrate incubated for 15 mins by luminescence assay
T2 sequence (P28074 whole entry): T1 sequence (whole entry)

SMILES | inhibition [1] | IC50 [2]
CCN(CC)c1ccc(-n2nc(-c3ccc(OCCCCBr)cc3)c3ccccc3c2=O)cc1 | inactive | 
CCN(CC)c1ccc(-n2nc(-c3ccc(OCCCC[P+](c4ccccc4)(c4ccccc4)c4ccccc4)cc3)c3ccccc3c2=O)cc1 | 99.1% | 10.2 µM
CCN(CC)c1ccc(-n2nc(-c3ccc(OCCCC[n+]4ccn(C)c4)cc3)c3ccccc3c2=O)cc1 | 5.8% | 
CCN(CC)c1ccc(-n2nc(-c3ccc(OCCCC[P+](C4CCCCC4)(C4CCCCC4)C4CCCCC4)cc3)c3ccccc3c2=O)cc1 | 98.5% | 13.3 µM
CCN(CC)c1ccc(-n2nc(-c3ccc(OCCCC[N+](CC)(CC)CC)cc3)c3ccccc3c2=O)cc1 | 10.3% | 
CCN(CC)c1ccc(-n2nc(-c3ccc(OCCCCN4CCCCC4)cc3)c3ccccc3c2=O)cc1 | 8% | 
CCN(CC)c1ccc(-n2nc(-c3ccc(OCCCC[n+]4ccccc4)cc3)c3ccccc3c2=O)cc1 | 8.6% | 
CCN(CC)c1ccc(-n2nc(-c3ccc(OCCCCP(c4ccccc4)c4ccccc4)cc3)c3ccccc3c2=O)cc1 | 19.6% | 
CCN(CC)c1ccc(-n2nc(-c3ccc(OCCCCN4CCCC4)cc3)c3ccccc3c2=O)cc1 | 13.2% | 
O=c1c2ccccc2c(-c2ccc(OCCCC[P+](c3ccccc3)(c3ccccc3)c3ccccc3)cc2)nn1CC1CCCCC1 | 84.9% | 16.1 µM
CCN(CC)c1ccc(-n2nc(-c3ccc(OCCCCN4CCOCC4)cc3)c3ccccc3c2=O)cc1 | 5.1% | 

Second part, the compound after the results:

inhibition [1] | IC50 [2] | SMILES
80.9% | 11.9 µM | O=c1c2ccccc2c(-c2ccc(OCCCC[P+](c3ccccc3)(c3ccccc3)c3ccccc3)cc2)nn1Cc1ccccc1
94.3% | 14.2 µM | CNc1ccc(-n2nc(-c3ccc(OCCCC[P+](c4ccccc4)(c4ccccc4)c4ccccc4)cc3)c3ccccc3c2=O)cc1
98.7% | 13.8 µM | O=c1c2ccccc2c(-c2ccc(OCCCC[P+](c3ccccc3)(c3ccccc3)c3ccccc3)cc2)nn1-c1ccc2ccccc2c1
52.4% | 26 µM | CC(C)Cn1nc(-c2ccc(OCCCC[P+](c3ccccc3)(c3ccccc3)c3ccccc3)cc2)c2ccccc2c1=O
99.5% | 9.88 µM | O=c1c2ccccc2c(-c2ccc(OCCCC[P+](c3ccccc3)(c3ccccc3)c3ccccc3)cc2)nn1-c1ccccc1
inactive |  | Cn1nc(-c2ccc(OCCCC[P+](c3ccccc3)(c3ccccc3)c3ccccc3)cc2)c2ccccc2c1=O
inactive |  | CCn1nc(-c2ccc(OCCCC[P+](c3ccccc3)(c3ccccc3)c3ccccc3)cc2)c2ccccc2c1=O
70.5% | 21.5 µM | O=c1c2ccccc2c(-c2ccc(OCCCC[P+](c3ccccc3)(c3ccccc3)c3ccccc3)cc2)nn1CC1CCC1
48.2% | 23 µM | O=c1c2ccccc2c(-c2ccc(OCCCC[P+](c3ccccc3)(c3ccccc3)c3ccccc3)cc2)nn1CC1CC1
12.1% |  | CCCn1nc(-c2ccc(OCCCC[P+](c3ccccc3)(c3ccccc3)c3ccccc3)cc2)c2ccccc2c1=O
93.2% | 17.6 µM | O=c1c2ccccc2c(-c2ccc(OCCCC[P+](c3ccccc3)(c3ccccc3)c3ccccc3)cc2)nn1-c1cccs1
35.8% |  | CCCCn1nc(-c2ccc(OCCCC[P+](c3ccccc3)(c3ccccc3)c3ccccc3)cc2)c2ccccc2c1=O
